This is an account of results in ChEMBL document CHEMBL2346573, “Probing the role of the vancomycin e-ring aryl chloride: selective divergent synthesis and evaluation of alternatively substituted E-ring analogues” (2013).

As usually defined, the MIC is the lowest concentration that inhibits growth of the organism.

Each structure is given as a SMILES string. In brackets after ≈: the same amount, converted by molar mass. A value given as a limit tells only on which side of the number the result lay.

Test [1] deals with Staphylococcus aureus. As to the kind of experiment: Antimicrobial activity against vancomycin-sensitive Staphylococcus aureus ATCC 25923 after 24 hrs by microtiter plate assay. The class given is functional. The following applies: ATCC 25923, 24 h.
In test [2] the test system is Enterococcus faecalis. As to the kind of experiment: Antimicrobial activity against VanB vancomycin-resistant Enterococcus faecalis ATCC 51299 after 24 hrs by microtiter plate assay. The format is functional. The following applies: ATCC 51299, 24 h.
Test [3] is described as follows: Ratio of MIC for VanB vancomycin-resistant Enterococcus faecalis ATCC 51299 to MIC for vancomycin-sensitive Staphylococcus aureus ATCC 25923. The format is functional.
Test [4] can be described thus: Binding affinity to N,N'-Ac2-L-Lys-D-Ala-D-Ala (unknown origin).
The test system of test [5] is Enterococcus faecalis. Briefly: Antimicrobial activity against VanA vancomycin-resistant Enterococcus faecalis BM4166. The format is functional.
For test [6], the system named is Enterococcus faecalis. As to the kind of experiment: Antimicrobial activity against VanB vancomycin-resistant Enterococcus faecalis ATCC 51299. The class given is functional.
For test [7], the system named is Staphylococcus aureus. As to the kind of experiment: Antimicrobial activity against Staphylococcus aureus ATCC 25923. The format is functional.

In the case of `CN[C@H](CC(C)C)C(=O)N[C@H]1C(=O)N[C@@H](CC(N)=O)C(=O)N[C@H]2C(=O)N[C@H]3C(=O)N[C@H](C(=O)N[C@H](C(=O)OC)c4cc(OC)cc(OC)c4-c4cc3ccc4OC)[C@H](O)c3ccc(c(Cl)c3)Oc3cc2cc(c3OC)Oc2ccc(cc2C(F)(F)F)[C@H]1O`, the minimum inhibitory concentration (MIC) is 2.5 µg/mL (≈ 2 µM) in test [1] and 20 µg/mL (≈ 16 µM) in test [2]. Also, in test [3], the Ratio was 8. Also, the Ka in test [4] was 1.2 ×10⁵ /M.
Take `COC(=O)[C@H]1NC(=O)[C@H]2NC(=O)[C@H](NC(=O)[C@@H]3NC(=O)[C@H]4NC(=O)[C@@H](Cc5ccc(c(Cl)c5)Oc5cc3cc(c5OC)Oc3ccc(cc3Cl)[C@H]2O)NC(=O)[C@H](N)c2ccc(OC)c(c2)Oc2cc(OC)cc4c2)c2ccc(OC)c(c2)-c2c(OC)cc(OC)cc21`: the values for the MIC in test [5], in test [6] and in test [7] were greater than 100 µg/mL, 3.2 µg/mL (≈ 2.47 µM) and 3.2 µg/mL (≈ 2.47 µM), respectively.
Regarding `CN[C@H](CC(C)C)C(=O)N[C@H]1C(=O)N[C@@H](CC(N)=O)C(=O)N[C@H]2C(=O)N[C@H]3C(=O)N[C@H](C(=O)N[C@H](C(=O)OC)c4cc(OC)cc(OC)c4-c4cc3ccc4OC)[C@H](O)c3ccc(c(Cl)c3)Oc3cc2cc(c3OC)Oc2ccc(cc2OC)[C@H]1O`, the figures for the minimal inhibitory concentration (MIC) in test [1] and in test [2] were 2.5 µg/mL (≈ 2.07 µM) and 5 µg/mL (≈ 4.13 µM), respectively. Also, the Ka in test [4] worked out at 1.2 ×10⁵ /M.
For the compound `CN[C@H](CC(C)C)C(=O)N[C@H]1C(=O)N[C@@H](CC(N)=O)C(=O)N[C@H]2C(=O)N[C@H]3C(=O)N[C@H](C(=O)N[C@H](C(=O)OC)c4cc(OC)cc(OC)c4-c4cc3ccc4OC)[C@H](O)c3ccc(c(Cl)c3)Oc3cc2cc(c3OC)Oc2ccc(cc2O)[C@H]1O`, the MIC in test [1] and in test [2] was 5 µg/mL (≈ 4.18 µM) throughout. Besides, the Ratio in test [3] came to 1. Also, the Ka in test [4] was 0.88 ×10⁵ /M.
For the compound `CN[C@H](CC(C)C)C(=O)N[C@H]1C(=O)N[C@@H](CC(N)=O)C(=O)N[C@H]2C(=O)N[C@H]3C(=O)N[C@H](C(=O)N[C@H](C(=O)OC)c4cc(OC)cc(OC)c4-c4cc3ccc4OC)[C@H](O)c3ccc(c(Cl)c3)Oc3cc2cc(c3OC)Oc2ccc(cc2N(C)C)[C@H]1O`, the values for the MIC in test [1] and in test [2] were 5 µg/mL (≈ 4.09 µM) and 10 µg/mL (≈ 8.18 µM), respectively. For the same compound, in test [4], the Ka was found to be 0.34 ×10⁵ /M.
As for `CN[C@H](CC(C)C)C(=O)N[C@H]1C(=O)N[C@@H](CC(N)=O)C(=O)N[C@H]2C(=O)N[C@H]3C(=O)N[C@H](C(=O)N[C@H](C(=O)OC)c4cc(OC)cc(OC)c4-c4cc3ccc4OC)[C@H](O)c3ccc(c(Cl)c3)Oc3cc2cc(c3OC)Oc2ccc(cc2C)[C@H]1O`, the MIC came out at 2.5 µg/mL (≈ 2.09 µM) in test [1] and 5 µg/mL (≈ 4.19 µM) in test [2]. The same compound registered a Ka in test [4] of 1.2 ×10⁵ /M.
Turning to `CN[C@H](CC(C)C)C(=O)N[C@H]1C(=O)N[C@@H](CC(N)=O)C(=O)N[C@H]2C(=O)N[C@H]3C(=O)N[C@H](C(=O)N[C@H](C(=O)O)c4cc(O)cc(O)c4-c4cc3ccc4O)[C@H](O)c3ccc(c(Cl)c3)Oc3cc2cc(c3O)Oc2ccc(cc2)[C@H]1O`, the values for the minimal inhibitory concentration (MIC) in test [1] and in test [2] were 5 µg/mL (≈ 4.51 µM) and 80 µg/mL (≈ 72.1 µM), respectively. In test [4], this compound showed a Ka of 0.68 ×10⁵ /M.
For the compound `CN[C@H](CC(C)C)C(=O)N[C@H]1C(=O)N[C@@H](CC(N)=O)C(=O)N[C@H]2C(=O)N[C@H]3C(=O)N[C@H](C(=O)N[C@H](C(=O)OC)c4cc(OC)cc(OC)c4-c4cc3ccc4OC)[C@H](O)c3ccc(c(Cl)c3)Oc3cc2cc(c3OC)Oc2ccc(cc2B(O)O)[C@H]1O`, the values for the minimum inhibitory concentration (MIC) in test [1] and in test [2] were 5 µg/mL (≈ 4.09 µM) and 10 µg/mL (≈ 8.17 µM), respectively. The Ka in test [4] amounted to 0.23 ×10⁵ /M.
The corresponding values for `CN[C@H](CC(C)C)C(=O)N[C@H]1C(=O)N[C@@H](CC(N)=O)C(=O)N[C@H]2C(=O)N[C@H]3C(=O)N[C@H](C(=O)N[C@H](C(=O)O)c4cc(O)cc(O)c4-c4cc3ccc4O)[C@H](O)c3ccc(c(Cl)c3)Oc3cc2cc(c3O)Oc2ccc(cc2Br)[C@H]1O` are 2.5 µg/mL (≈ 2.1 µM), 40 µg/mL (≈ 33.7 µM) and 1.1 ×10⁵ /M.
`CN[C@H](CC(C)C)C(=O)N[C@H]1C(=O)N[C@@H](CC(N)=O)C(=O)N[C@H]2C(=O)N[C@H]3C(=O)N[C@H](C(=O)N[C@H](C(=O)OC)c4cc(OC)cc(OC)c4-c4cc3ccc4OC)[C@H](O)c3ccc(c(Cl)c3)Oc3cc2cc(c3OC)Oc2ccc(cc2)[C@H]1O`: the minimal inhibitory concentration (MIC) in test [1] and in test [2] was 5 µg/mL (≈ 4.24 µM) in each case. For the same compound, the Ratio in test [3] was determined as 1. For the same compound, the Ka in test [4] was 0.71 ×10⁵ /M.
For `CN[C@H](CC(C)C)C(=O)N[C@H]1C(=O)N[C@@H](CC(N)=O)C(=O)N[C@H]2C(=O)N[C@H]3C(=O)N[C@H](C(=O)N[C@H](C(=O)O)c4cc(O)cc(O)c4-c4cc3ccc4O)[C@H](O)c3ccc(c(Cl)c3)Oc3cc2cc(c3O)Oc2ccc(cc2O)[C@H]1O`, the minimal inhibitory concentration (MIC) in test [1] was found to be 5 µg/mL (≈ 4.44 µM); in test [2], 40 µg/mL (≈ 35.5 µM). In addition, the Ka in test [4] turned out to be 0.53 ×10⁵ /M.
For `CN[C@H](CC(C)C)C(=O)N[C@H]1C(=O)N[C@@H](CC(N)=O)C(=O)N[C@H]2C(=O)N[C@H]3C(=O)N[C@H](C(=O)N[C@H](C(=O)OC)c4cc(OC)cc(OC)c4-c4cc3ccc4OC)[C@H](O)c3ccc(c(Cl)c3)Oc3cc2cc(c3OC)Oc2ccc(cc2C#N)[C@H]1O`, the MIC in test [1] came to 2.5 µg/mL (≈ 2.08 µM); in test [2], 5 µg/mL (≈ 4.15 µM). The compound further returned a Ka in test [4] of 1.1 ×10⁵ /M.
For `CN[C@H](CC(C)C)C(=O)N[C@H]1C(=O)N[C@@H](CC(N)=O)C(=O)N[C@H]2C(=O)N[C@H]3C(=O)N[C@H](C(=O)N[C@H](C(=O)O)c4cc(O)cc(O)c4-c4cc3ccc4O)[C@H](O)c3ccc(c(Cl)c3)Oc3cc2cc(c3O)Oc2ccc(cc2Cl)[C@H]1O` [VANCOMYCIN AGLYCON], the MIC in test [1] was 1.25 µg/mL (≈ 1.09 µM); in test [5], greater than 100 µg/mL; in test [6], greater than 100 µg/mL; in test [2], 40 µg/mL (≈ 35 µM); in test [7], 0.8 µg/mL (≈ 0.699 µM). Moreover, in test [4], the Ka stood at 1.4 ×10⁵ /M.
With `N[C@H]1C(=O)N[C@@H]2Cc3ccc(c(Cl)c3)Oc3cc4cc(c3O)Oc3ccc(cc3Cl)[C@@H](O)[C@@H]3NC(=O)[C@H](NC(=O)[C@@H]4NC(=O)[C@@H](NC2=O)c2cc(O)cc(c2)Oc2cc1ccc2O)c1ccc(O)c(c1)-c1c(O)cc(O)cc1[C@@H](C(=O)O)NC3=O` [TEICOPLANIN AGLYCON], the figures for the MIC in test [5], in test [6] and in test [7] were greater than 100 µg/mL, 25 µg/mL (≈ 20.9 µM) and 1.6 µg/mL (≈ 1.33 µM), respectively.
As to `CN[C@H](CC(C)C)C(=O)N[C@H]1C(=O)N[C@@H](CC(N)=O)C(=O)N[C@H]2C(=O)N[C@H]3C(=O)N[C@H](C(=O)N[C@H](C(=O)OC)c4cc(OC)cc(OC)c4-c4cc3ccc4OC)[C@H](O)c3ccc(c(Cl)c3)Oc3cc2cc(c3OC)Oc2ccc(cc2I)[C@H]1O`, the minimal inhibitory concentration (MIC) in test [1] is 2.5 µg/mL (≈ 1.91 µM); in test [2], 10 µg/mL (≈ 7.66 µM). In test [4], this compound displayed a Ka of 1.3 ×10⁵ /M.
The like results for `CN[C@H](CC(C)C)C(=O)N[C@H]1C(=O)N[C@@H](CC(N)=O)C(=O)N[C@H]2C(=O)N[C@H]3C(=O)N[C@H](C(=O)N[C@H](C(=O)OC)c4cc(OC)cc(OC)c4-c4cc3ccc4OC)[C@H](O)c3ccc(c(Cl)c3)Oc3cc2cc(c3OC)Oc2ccc(cc2N=[N+]=[N-])[C@H]1O` were, in that order, 1.25 µg/mL (≈ 1.02 µM), 5 µg/mL (≈ 4.1 µM) and 1.2 ×10⁵ /M.
As to `CN[C@H](CC(C)C)C(=O)N[C@H]1C(=O)N[C@@H](CC(N)=O)C(=O)N[C@H]2C(=O)N[C@H]3C(=O)N[C@H](C(=O)N[C@H](C(=O)OC)c4cc(OC)cc(OC)c4-c4cc3ccc4OC)[C@H](O)c3ccc(c(Cl)c3)Oc3cc2cc(c3OC)Oc2ccc(cc2[N+](=O)[O-])[C@H]1O`, the MIC in test [1] and in test [2] was greater than 40 µg/mL in each case. The same compound returned a Ka in test [4] of 0.097 ×10⁵ /M.
Turning to `CN[C@H](CC(C)C)C(=O)N[C@H]1C(=O)N[C@@H](CC(N)=O)C(=O)N[C@H]2C(=O)N[C@H]3C(=O)N[C@H](C(=O)N[C@H](C(=O)OC)c4cc(OC)cc(OC)c4-c4cc3ccc4OC)[C@H](O)c3ccc(c(Cl)c3)Oc3cc2cc(c3OC)Oc2ccc(cc2C(=O)OC)[C@H]1O`, the MIC in test [1] was determined as 2.5 µg/mL (≈ 2.02 µM); in test [2], 10 µg/mL (≈ 8.08 µM). In test [4], this compound came in with a Ka of 1 ×10⁵ /M.
With `CN[C@H](CC(C)C)C(=O)N[C@H]1C(=O)N[C@@H](CC(N)=O)C(=O)N[C@H]2C(=O)N[C@H]3C(=O)N[C@H](C(=O)N[C@H](C(=O)OC)c4cc(OC)cc(OC)c4-c4cc3ccc4OC)[C@H](O)c3ccc(c(Cl)c3)Oc3cc2cc(c3OC)Oc2ccc(cc2Cl)[C@H]1O`, the minimal inhibitory concentration (MIC) in test [1] was 1.25 µg/mL (≈ 1.03 µM); in test [5], 50 µg/mL (≈ 41.2 µM); in test [6], 2.5 µg/mL (≈ 2.06 µM); in test [2] it was 2.5 µg/mL (≈ 2.06 µM); in test [7], 1.25 µg/mL (≈ 1.03 µM). This compound also showed a Ka in test [4] of 1.3 ×10⁵ /M.
`CN[C@H](CC(C)C)C(=O)N[C@H]1C(=O)N[C@@H](CC(N)=O)C(=O)N[C@H]2C(=O)N[C@H]3C(=O)N[C@H](C(=O)N[C@H](C(=O)OC)c4cc(OC)cc(OC)c4-c4cc3ccc4OC)[C@H](O)c3ccc(c(Cl)c3)Oc3cc2cc(c3OC)Oc2ccc(cc2Br)[C@H]1O`: the minimum inhibitory concentration (MIC) amounted to 2.5 µg/mL (≈ 1.99 µM) in test [1] and 5 µg/mL (≈ 3.97 µM) in test [2]. For the same compound, the Ka in test [4] was found to be 1.1 ×10⁵ /M.
Turning to `CN[C@H](CC(C)C)C(=O)N[C@H]1C(=O)N[C@@H](CC(N)=O)C(=O)N[C@H]2C(=O)N[C@H]3C(=O)N[C@H](C(=O)N[C@H](C(=O)O)c4cc(O)cc(O)c4-c4cc3ccc4O)[C@H](O)c3ccc(c(Cl)c3)Oc3cc2cc(c3O[C@@H]2O[C@H](CO)[C@@H](O)[C@H](O)[C@H]2O[C@H]2C[C@](C)(N)[C@H](O)[C@H](C)O2)Oc2ccc(cc2Cl)[C@H]1O` [VANCOMYCIN], the minimal inhibitory concentration (MIC) was 1.25 µg/mL (≈ 0.863 µM) in test [1], greater than 100 µg/mL in test [5], 120 µg/mL (≈ 82.8 µM) in test [6] and 120 µg/mL (≈ 82.8 µM) in test [2].
